Source: US12203938B2, “Levetiracetam immunoassays” (ARK Diagnostics, Inc., priority 2008, dated 2025)

Experiments:
[1] = tested on: antibody #12019-P8; experiment: Specificity / crossreactivity of the immunoassay with levetiracetam metabolite; format: binding, rabbit; settings: for % Cross Reactivity: 100 × apparent concentration of levetiracetam / concentration of crossreactant
From the text: Antibodies obtained using any of the disclosed techniques are screened or purified not only for their ability to react with levetiracetam, but for a low cross-reactivity with potential interfering substances. “Cross-reactivity” may be determined in a quantitative immunoassay by establishing a standard curve using known dilutions of the target analyte, levetiracetam. The standard curve is then used to calculate the apparent concentration of the interfering substance present in various known amounts in samples assayed under similar condition. The cross-reactivity can be calculated as the apparent concentration divided by the actual concentration multiplied by 100. A certain immunoassay for determining cross-reactivity is a homogeneous enzyme immunoassay using a wild type G6PDH as described in U.S. Pat. No. 3,817,837 or mutant G6PDH engineered to contain a cysteine per subunit as described in U.S. Pat. Nos. 6,033,890, 6,090,567 and 6,455,288. Furthermore, the cross-reactivity can be determined in the same type of immunoassay in which the antibody will ultimately be used.
(§1) The levetiracetam derivative antibodies and enzyme conjugates may be advantageously used in a homogeneous assay format to detect levetiracetam in samples. An enzyme immunoassay or ARK Assay, which is a homogeneous enzyme immunoassay experiment, was performed to test antibodies prepared as described in Example 22. The ARK Assay for levetiracetam was conducted using a liquid, ready-to-use, two-reagent kit. A clinical chemistry analyzer useful to set up the assay is HITACHI 917. The HITACHI 917 is an automated biochemistry analyzer used by medical laboratories to process biological fluid specimens, such as urine, cerebrospinal fluid, and most commonly, blood. Manufactured by Boehringer Mannheim, the HITACHI 917 is a commonly used routine chemical chemistry. Levetiracetam containing sample was incubated with antibody reagent followed by the addition of the enzyme conjugate reagent. The enzyme conjugate activity decreases upon binding to the antibody. […] The oxidation of G6P is coupled with the reduction of NAD to NADH, which was measured at 340 nm. The change in the absorbance at 340 nm was measured spectrophotometrically. The levetiracetam concentration in a specimen was measured in terms of G6PDH activity. The increase in the rate at 340 nm was due to the formation of NADH and is proportional to the enzyme conjugate activity. An assay calibration curve was generated using levetiracetam spiked into negative calibrator matrix. The assay rate increases with increasing the concentration of drug in the sample.
The major metabolic pathway of levetiracetam (24% of dose) is an enzymatic hydrolysis of the acetamide group. The metabolites have no known pharmacological activity and are renally excreted. To human serum negative for levetiracetam was added levetiracetam dissolved in methanol to achieve a concentration of concentration of 30 μg/mL of levetiracetam (FIG. 1(1)).
To a second sample was added 2-pyrrolidone-N-butyric acid dissolved in methanol to achieve a concentration of 150.0 μg/mL 2-pyrrolidone-N-butyric acid (FIG. 1(2)). To a third sample was added 30 μg/mL of levetiracetam plus 406.4 μg/mL 2-pyrrolidone-N-butyric acid (FIG. 1(2)). The samples were assayed on the HITACHI 917. The levetiracetam metabolite, 2-pyrrolidone-N-butyric acid was tested in the immunoassay for potential crossreactivity with Enzyme Conjugate Reagent #110607-D63-E containing conjugate (44-G6PDH) and Antibody Reagent #11341P4-6-Ab containing antibody #12019-P8.

[2] = in vivo; cited from earlier work
[3] = tested on: rabbit polyclonal antibody #12019-P8; experiment: Homogeneous enzyme immunoassay (ARK Assay) calibration curve on HITACHI 917, conjugate (44-G6PDH); format: binding
Method: Rabbit polyclonal antibody #12019-P8 was used to measure a substantial change in enzyme activity, generate a calibration curve, and evaluate assay precision, accuracy and specificity. The antibody was added into the antibody diluent to prepare the antibody reagent. The antibody reagent consists of antibody as prepared above, buffer, stabilizers, preservatives, and the substrates for the enzyme conjugate nicotinamide adenine dinucleotide (NAM and glucose-6-phosphate. Enzyme conjugate comprising compound (44-G6PDH) G6PDH was added into the conjugate reagent to prepare the enzyme conjugate reagent. The enzyme conjugate reagent comprises the conjugate, buffer, stabilizers and preservatives. Enzyme conjugate (44-G6PDH) was used with rabbit polyclonal antibody #12019-P8 in examples below. This technique is generally applicable to produce polyclonal antibodies to levetiracetam derivatives and assess their utility.
as §1
Levetiracetam was dissolved in methanol to give a stock solution of 1000 μg/mL. Pooled human serum was aliquoted in 10 mL portions. Levetiracetam stock solution was added to the aliquots of human serum in preparing a series of known concentrations of levetiracetam calibrators ranging from 0 to 100 μg/mL. Similarly, Quality Control samples were prepared (15.0, 35.0 and 75.0 μg/mL). The antibody/substrate reagent #11341P4-6-Ab containing antibody ##12019-P8 was assayed with enzyme reagent #110607-D63-E containing conjugate (44-G6PDH). Calibration curves were generated on the HITACHI 917 automated clinical chemistry analyzer, as described in Example 23 by assaying each level in duplicate.

Row | Compound | Levetiracetam Result ([1]; Concentration Tested 150.0 μg/mL in human serum) [µg/mL] | % Cross Reactivity ([1]; Concentration Tested 150.0 μg/mL) [%] | Levetiracetam Result ([1]; Concentration Tested 406.4 μg/mL in human serum) [µg/mL] | % Cross Reactivity ([1]; Concentration Tested 406.4 μg/mL) [%] | Crossreactivity of antibody #12019-P8 (in words) ([1]; conjugate (44-G6PDH), HITACHI 917) | Major metabolic pathway: enzymatic hydrolysis of the acetamide group [2] | Reaction Rate (mA/min) Average of Duplicates ([3]; levetiracetam calibrator 5.0 μg/mL in pooled human serum) [mA/min] | Reaction Rate (mA/min) Average of Duplicates ([3]; levetiracetam calibrator 10.0 μg/mL in pooled human serum) [mA/min] | Reaction Rate (mA/min) Average of Duplicates ([3]; levetiracetam calibrator 25.0 μg/mL in pooled human serum) [mA/min] | Reaction Rate (mA/min) Average of Duplicates ([3]; levetiracetam calibrator 50.0 μg/mL in pooled human serum) [mA/min] | Reaction Rate (mA/min) Average of Duplicates ([3]; levetiracetam calibrator 100.0 μg/mL in pooled human serum) [mA/min] | Levetiracetam Result ([1]; Concentration Tested 30.0 μg/mL in human serum) [µg/mL] | % Cross Reactivity ([1]; Concentration Tested 30.0 μg/mL) [%]
1 | 2-pyrrolidone-N-butyric acid | 0 | 0 | 0 | 0 | does not crossreact |  |  |  |  |  |  |  | 
2 | CC[C@@H](C(N)=O)N1CCCC1=O (single isomer, unassigned) [Levetiracetam] |  |  |  |  |  | 24 % of dose | 547.4 | 561.2 | 586.9 | 607.5 | 626.0 | 29.9 | 100
